Read-outs that look alike come from different tables or passages of the source. Values belong to the molecule of their own block, whether it stands above or below them.
Assays:
NTSR1 [1] = target: T1, NTSR1 (Homo sapiens, UniProt P30989); format: cell-based; settings: for Emax: % of the response obtained with the NT(8–13) peptide, average ± SEM, n = 4; for NTSR1 activity (in words): Ca2+ mobilization assay
NTSR1 [2] = target: T1, NTSR1; settings: NTSR1 antagonists; cited from earlier work
NTSR1 [3] = target: T1, NTSR1; assay: Ca2+ assay in the presence and absence of antagonist 5; format: cell-based; settings: in the presence of antagonist 5 (SR 48692); Figure S1
NTSR1 [4] = target: T1, NTSR1; settings: Wyeth compound 1, literature value; cited from earlier work

T1 sequence (P30989 whole entry, species assumed): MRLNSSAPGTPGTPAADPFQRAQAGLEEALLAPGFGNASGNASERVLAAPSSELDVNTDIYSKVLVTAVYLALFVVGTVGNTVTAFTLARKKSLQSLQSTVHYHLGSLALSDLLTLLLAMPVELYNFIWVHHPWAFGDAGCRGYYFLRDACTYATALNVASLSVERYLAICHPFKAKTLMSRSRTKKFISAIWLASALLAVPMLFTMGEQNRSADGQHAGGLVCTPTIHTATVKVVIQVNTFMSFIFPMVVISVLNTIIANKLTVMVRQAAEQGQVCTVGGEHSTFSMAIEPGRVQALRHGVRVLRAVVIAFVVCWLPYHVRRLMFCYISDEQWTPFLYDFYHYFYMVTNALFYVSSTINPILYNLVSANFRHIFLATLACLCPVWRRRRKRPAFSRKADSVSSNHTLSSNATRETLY

Compound: COc1cccc(OC)c1-c1cc(C(=O)NC2(C(=O)O)C3CC4CC(C3)CC2C4)nn1-c1ccc(C(=O)N(C)CCCN(C)C)cc1C(C)C (stereo not drawn) [Compound 6]
Binding affinity (NTSR1 [2]): low nanomolar range

Compound: CC(C)C[C@@H](NC(=O)Cn1ccc2cc(NS(=O)(=O)c3cccc4cccnc34)ccc21)C(=O)O [Compound 1, reference compound]
EC50 (NTSR1 [1]): > 100 µM
Emax (NTSR1 [4]): 17%

Compound: COc1cccc(OC)c1-c1cc(C(=O)NC2(C(=O)O)C3CC4CC(C3)CC2C4)nn1-c1ccnc2cc(Cl)ccc12 (stereo not drawn) [Compound 5]
Binding affinity (NTSR1 [2]): low nanomolar range

Compound: CC(C)C[C@@H](CO)NC(=O)Cn1ccc2cc(-c3cnc4ccccc4c3)ccc21 [Compound 26]
NTSR1 activity (in words) (NTSR1 [1]): loss of activity

Compound: CC(C)C[C@H](NC(=O)Cn1ccc2ccccc21)C(=O)O [Compound 12]
NTSR1 stimulatory activity in the presence of antagonist 5 (NTSR1 [3]): abolished

Compound: COC(=O)[C@H](CC(C)C)NC(=O)Cn1ccc2cc(-c3cccc4ccccc34)ccc21 [Compound 34]
NTSR1 activity (in words) (NTSR1 [1]): abolished activity

Compound: CC(C)C[C@H](NC(=O)Cn1ccc2ccc(-c3cnc4ccccc4c3)cc21)C(=O)O [Compound 39]
NTSR1 stimulatory activity in the presence of antagonist 5 (NTSR1 [3]): abolished

Compound: CC(C)C[C@@H](NC(=O)Cn1ccc2cc(-c3cnc4ccccc4c3)ccc21)C(=O)O [Compound 32]
NTSR1 activity (in words) (NTSR1 [1]): no activity

Second part, the molecule after the results:

EC50 (NTSR1 [1]): 4 µM
Compound: O=C(Cn1ccc2cc(-c3cnc4ccccc4c3)ccc21)N[C@@H](Cc1ccccc1)C(=O)O [Compound 31]

NTSR1 stimulatory activity in the presence of antagonist 5 (NTSR1 [3]): abolished
Compound: CC(C)C[C@H](NC(=O)Cn1ccc2cc(NS(=O)(=O)c3cccc4cccnc34)ccc21)C(=O)O [Compound 7]

NTSR1 stimulatory activity in the presence of antagonist 5 (NTSR1 [3]): abolished
Compound: CC(C)C[C@H](NC(=O)Cn1ccc2ccc(-c3cccc4ccccc34)cc21)C(=O)O [Compound 40]

EC50 (NTSR1 [1]): 3 µM
Emax (NTSR1 [1]): 100%
NTSR1 stimulatory activity in the presence of antagonist 5 (NTSR1 [3]): abolished
Compound: CC(C)C[C@H](NC(=O)Cn1ccc2cc(-c3cccc4ccccc34)ccc21)C(=O)O [Compound 17]

NTSR1 stimulatory activity in the presence of antagonist 5 (NTSR1 [3]): abolished
Compound: CC(C)C[C@H](NC(=O)Cn1ccc2cc(-c3cnc4ccccc4c3)ccc21)c1nn[nH]n1 [Compound 27]

NTSR1 stimulatory activity in the presence of antagonist 5 (NTSR1 [3]): abolished
Compound: CC(C)C[C@H](NC(=O)Cn1ccc2cc(-c3cncc4ccccc34)ccc21)C(=O)O [Compound 21]

Emax (NTSR1 [1]): 100%
Potency improvement compared to parent compound 1 (NTSR1 [1]; EC50 versus compound 1 (EC50 = 178 μM)): ~ 90 fold
NTSR1 stimulatory activity in the presence of antagonist 5 (NTSR1 [3]): abolished
Compound: CC(C)C[C@H](NC(=O)Cn1ccc2cc(-c3cnc4ccccc4c3)ccc21)C(=O)O [Compound 8]

NTSR1 activity (in words) (NTSR1 [1]): loss of activity
Compound: COC(=O)[C@H](CC(C)C)NC(=O)Cn1ccc2cc(-c3cnc4ccccc4c3)ccc21 [Compound 25]

— PMC4130903 (Bioorganic & medicinal chemistry letters, 2014)
